Experimental data from patent US4582794A, “Method of determining polyamine content of biological fluids” (The University of Arizona Foundation, priority 1982, dated 1986).

Molecular target: T1, guinea pig liver transglutaminase (UniProt P08587)
T1 construct: guinea pig liver transglutaminase; from tissue; host or cells: guinea pig liver
T1 sequence (P08587 2-690 limits assumed): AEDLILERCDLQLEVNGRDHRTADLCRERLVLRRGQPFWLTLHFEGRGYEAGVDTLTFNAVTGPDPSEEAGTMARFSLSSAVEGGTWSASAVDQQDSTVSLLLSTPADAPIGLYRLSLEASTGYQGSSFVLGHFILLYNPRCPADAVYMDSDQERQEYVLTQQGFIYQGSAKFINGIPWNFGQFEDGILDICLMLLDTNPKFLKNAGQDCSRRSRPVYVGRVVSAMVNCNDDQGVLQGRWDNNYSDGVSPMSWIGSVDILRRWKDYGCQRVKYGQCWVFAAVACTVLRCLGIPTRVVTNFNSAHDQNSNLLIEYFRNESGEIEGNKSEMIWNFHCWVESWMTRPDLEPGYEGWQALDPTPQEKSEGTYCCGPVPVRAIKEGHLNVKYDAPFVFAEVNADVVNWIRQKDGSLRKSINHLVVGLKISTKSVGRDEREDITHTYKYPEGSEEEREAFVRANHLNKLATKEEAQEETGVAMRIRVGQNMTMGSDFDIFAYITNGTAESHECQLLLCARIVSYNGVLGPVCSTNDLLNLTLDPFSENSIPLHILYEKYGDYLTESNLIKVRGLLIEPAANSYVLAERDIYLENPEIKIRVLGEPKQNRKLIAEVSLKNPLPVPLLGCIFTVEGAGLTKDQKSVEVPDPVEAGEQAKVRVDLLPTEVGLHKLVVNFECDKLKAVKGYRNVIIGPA
Test: transglutaminase-competition assay (incorporation of [3H]putrescine into dimethylated casein)
Assay type: biochemical
Details: 0.1 μM [3H]putrescine; 30 mM tris(hydroxymethyl)aminomethane HCl pH 8.0; FIG. 2
Procedure: The transglutaminase competition assay was conducted in the presence of 30 mM tris(hydroxymethyl)aminomethane HCl, pH 8.3 (closed circles); 30 mM glycine, pH 9.25, (open circles); 30 mM glycine, pH 9.75 (open triangles); or 30 mM glycine, pH 10.0 (open squares). The data were obtained in the presence of increasing amounts of unlabeled putrescine.
The ability of transglutaminase to incorporate polyamines into a covalent conjugate with protein is the basis for an assay procedure based on competition between radiolabeled polyamine and unlabeled polyamine-containing standards or samples as the enzyme's substrates. However, because the affinity of transglutaminase for amine-containing substrates is relatively low the assay reaction could not be conducted under saturating substrate conditions and yield the level of sensitivity required to measure the polyamine content of biological samples. Therefore, assay conditions were developed which would make the protein acceptor substrate ratelimiting and allow the reaction to be run to completion, the radioactive and unlabeled polyamine competing for the completion, the radioactive and unlabeled polyamine competing for the limited number of conjugation sites. […] In all cases, the maximum incorporation was achieved by 30-60 minutes and was stable to another hour.
The reaction was initiated by the addition of transglutaminase solution (10 μl), incubated 60 minutes at 37° C. […] Triplicate aliquots (35 μl) of the solution were spotted on 1.5×8 cm instant thin-layer chromatography strips at a site 1.5 cm above the bottom edge which had previously received 60 μl of 20% trichloroacetic acid. Ascending chromatography was immediately carried out in 5% trichloroacetic acid containing 0.2 M KCl. After the solvent front had reached the top of the strip (ca. 10 minutes), a 2.5-cm segment from 1.5 cm above the 1 cm below the origin was cut out, dried, and the segment counted in 6 ml of scintillation liquid (toluene/Omnifluor, New England Nuclear, Boston).

Structure (SMILES)	50% displacement of [3H]putrescine incorporation
NCCCCN [putrescine, Putrescine]	800 pmol
NCCCCNCCCN [spermidine, Spermidine]	800 pmol
NCCCNCCCCNCCCN [spermine]	800 pmol
